# Laboratory results taken from ChEMBL document CHEMBL1201862, “PubChem BioAssay data set” (2004).
# The source made the active and inactive calls.
# Experiments:
# [1] = DRD fibroblast viability loss – cell-based, non-viral oncogenic, luminescence, dose response (AID 1934); assay type: functional; conditions: Homo sapiens
# [2] = Luminescence Cell-Based Dose Response HTS to Identify Inhibitors of 5'UTR Stem-Loop Driven Prion Protein mRNA Translation in H4 Neuroglioblastoma Cells. [Related pubchem assays: 1827 (Project Summary), 1813 (Primary HTS)]; assay type: functional
# [3] = alpha-synuclein stem-loop luciferase translation blockers – H4 neuroglioma cells, luminescence, confirmation (AID 1988); assay type: functional, cell-based
# BJ [4] = experiment: BJ-TERT-LT-ST fibroblast viability loss – cell-based, RAS-independent, luminescence, dose response (AID 1935); assay type: functional; conditions: Homo sapiens;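 further: BJ fibroblasts immortalized with TERT plus LT and ST oncogenes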
# [5] = luciferase reporter signal suppression in cells – H4 neuroglioma cells, luminescence, dose response (AID 1990); assay type: functional, cell-based
# BJ [6] = experiment: BJ-TERT fibroblast viability loss – cell-based, RAS-independent, luminescence, dose response (AID 1933); assay type: functional; conditions: Homo sapiens
# BJ [7] = experiment: cells; assay type: functional, cell-based; conditions: Homo sapiens
# cells [8] = assay type: functional, cell-based
# [9] = biological target: T1, Nuclear receptor subfamily 0 group B member 1 (Homo sapiens, UniProt P51843); assay type: functional, cell-based;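 further: HEK293T cells transfected with SF-1 and DAX-1 plus StAR promoter luciferase reporter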
# T1 sequence (P51843 whole entry): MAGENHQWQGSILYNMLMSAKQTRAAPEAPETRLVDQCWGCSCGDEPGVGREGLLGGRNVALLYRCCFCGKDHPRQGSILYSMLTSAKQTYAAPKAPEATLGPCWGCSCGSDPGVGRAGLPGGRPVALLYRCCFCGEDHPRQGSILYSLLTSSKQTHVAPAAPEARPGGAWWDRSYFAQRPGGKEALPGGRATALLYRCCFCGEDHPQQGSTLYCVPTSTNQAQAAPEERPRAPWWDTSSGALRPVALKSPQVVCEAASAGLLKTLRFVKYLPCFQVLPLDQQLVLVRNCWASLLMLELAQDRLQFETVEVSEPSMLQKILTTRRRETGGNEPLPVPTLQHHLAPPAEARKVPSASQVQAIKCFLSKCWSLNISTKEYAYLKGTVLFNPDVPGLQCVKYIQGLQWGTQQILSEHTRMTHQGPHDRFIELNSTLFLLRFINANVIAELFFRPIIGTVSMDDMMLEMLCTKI
# [10] = biological target: Glucose-6-phosphate 1-dehydrogenase (Homo sapiens, UniProt P11413); experiment: inhibition of Homo sapiens G6PD, dose series – biochemical, fluorescence, selectivity assay for P. falciparum G6PD inhibitor project, dose response (AID 504792); assay type: functional
# Glucose-6-phosphate 1-dehydrogenase, sequence (P11413 whole entry): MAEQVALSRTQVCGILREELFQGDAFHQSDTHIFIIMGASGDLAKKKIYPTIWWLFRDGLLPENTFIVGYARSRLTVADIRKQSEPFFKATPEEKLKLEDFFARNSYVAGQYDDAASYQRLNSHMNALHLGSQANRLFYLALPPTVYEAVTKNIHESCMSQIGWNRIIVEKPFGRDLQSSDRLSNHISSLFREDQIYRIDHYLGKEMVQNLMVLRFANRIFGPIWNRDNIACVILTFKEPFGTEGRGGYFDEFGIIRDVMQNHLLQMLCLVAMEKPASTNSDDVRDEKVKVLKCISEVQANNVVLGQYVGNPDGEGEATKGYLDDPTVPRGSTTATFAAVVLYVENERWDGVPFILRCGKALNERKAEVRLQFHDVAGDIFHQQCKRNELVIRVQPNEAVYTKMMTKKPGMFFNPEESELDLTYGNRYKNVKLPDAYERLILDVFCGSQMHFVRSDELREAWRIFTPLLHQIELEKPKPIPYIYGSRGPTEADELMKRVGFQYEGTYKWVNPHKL
# [11] = viability of HCT116 lacking mutant beta-catenin – cell-based, human colon tumor, dose response (AID 1045); assay type: functional;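 further: HCT116 colon tumor cells with beta catenin knocked out; cells exposed to compound for 60 hours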
# [12] = viability of PTEN-deleted HCT116 cells – cell-based, HCT116 PTEN knockout, dose response (AID 1047); assay type: functional;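 further: HCT116 colon tumor cells with PTEN knocked out; cells exposed to compound for 60 hours before readout; potency for loss of cell viability measured by luminescence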
# [13] = microbe, parasite or virus in culture; assay type: functional; conditions: Mycobacterium tuberculosis
# [14] = viability loss in THP-1 monocytes – THP-1 cells, cytotoxicity control for Vif-APOBEC3G degradation inhibitor project, dose response (AID 1117359); assay type: functional; conditions: THP-1
# [15] = HIV-1 AD8 envelope cell-cell fusion blockers – cherry-pick, dose response (AID 652062); assay type: functional, cell-based;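 further: luciferase signal from cell-cell fusion driven by HIV-1 clade B AD8 Env; potency is for inhibitors of fusion seen as a drop in luminescence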
# [16] = blockers of HIV-1 ZM109 envelope-driven cell-cell fusion – HeLa effector, CEM target cells, luciferase, cherry-pick, dose response (AID 652058); assay type: functional, cell-based;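 further: luciferase signal from HIV-1 Env mediated cell-cell fusion of effector and target cells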
# [17] = blockers of HIV-1 envelope-mediated cell-cell fusion – cherry-pick, dose response (AID 652057); assay type: functional, cell-based
# [18] = off-target signal loss in HeLa-CEM21 co-culture – HeLa F-luc CTL cells, cherry-picked, counter-screen for HIV-1 Env fusion inhibitor project, dose response (AID 652040); assay type: functional, cell-based;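 further: potency for signal decrease marking cytotoxic or nonspecific inhibition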
# [19] = P. falciparum Dd2 growth inhibitors, dose response, SYBR Green, cherry-picked samples (AID 1159567); assay type: functional, cell-based
# [20] = THP-1 cell cytotoxicity, dose response, cytotoxicity control for non-replicating M. tuberculosis project (AID 489025); assay type: functional
# cells [21] = assay type: functional
smiles,measurement,setting,value
Cc1ccc(CSc2nc3ccccc3cc2C=O)cc1,EC50,[1],1.59 µM (active)
same,EC50,[2],11.9 µM (active)
same,EC50,[3],9.33 µM (active)
same,EC50,BJ [4],0.668 µM (active)
same,EC50,[5],> 120 µM (not active)
same,EC50,BJ [6],0.689 µM (active)
same,EC50,BJ [7],1.87 µM (active)
CN1C(=O)CSc2ccc(NC(=O)N3CCc4ccccc43)cc21,IC50,cells [8],> 67.5 µM (inactive)
same,IC50,[9],> 67.5 µM (inactive)
same,IC50,[10],> 80 µM (inactive)
CCOC(=O)N1CCc2c(sc(NC(=O)c3ccc(Cl)s3)c2C(N)=O)C1,EC50,[11],19.4 µM (active)
same,EC50,[12],15.7 µM (active)
same,CC50,[13],17.3 µM (active)
Oc1nnc(Cc2ncc(C(F)(F)F)cc2Cl)c2ccccc12,CC50,[14],> 40 µM (active)
Cc1cc(NC(=O)CCC(=O)N(C2CC2)C2(C(=O)NC3CCCC3)CCC(C)CC2)no1 (centres undefined),AC50,[15],13.4 µM (active)
same,AC50,[16],3.3 µM (active)
same,AC50,[17],5.4 µM (active)
same,AC50,[18],6.16 µM (active)
Cc1ccc(/C=C/C(=O)NCCc2cccc(Cl)c2)o1,IC50,[10],> 80 µM (inactive)
CC[C@@]12C(=O)N(c3ccccc3)C(=O)N1[C@H](c1cccc(C)c1)[C@@H]1C(=O)N(Cc3ccccc3)C(=O)[C@@H]12,AC50,[15],5.26 µM (active)
same,AC50,[16],3.8 µM (active)
same,AC50,[17],3.83 µM (active)
same,AC50,[18],4.02 µM (active)
COc1ccc(NC(=O)/C(C#N)=C\c2ccc(Br)o2)cc1,CC50,[14],3.4 µM (active)
CCn1c(SCC(=O)Nc2ccccc2OC)nnc1-c1cnccn1,IC50,[10],> 80 µM (inactive)
FC(F)(F)c1cccc(CN2[C@@H]3CNC[C@H]2[C@@H]3c2ccc(-c3cccnc3)cc2)c1,AC50,[19],4.42 µM (active)
COc1ccc(C#Cc2ccc3c(c2)[C@H]2[C@H](CCN2C(=O)C2CCC2)[C@H](CO)N3)cc1,AC50,[19],3.3 µM (active)
CC(NC(=O)c1cc2cc(Br)ccc2oc1=N)c1ccccc1 (centres undefined),CC50,[20],24.6 µM (active)
same,IC50,cells [21],33.6 µM (active)
